We go through one compound from article doi:10.1101/530550v1 (biorxiv, 2019).

The subject of the assay is 2,5DHP dioxygenase (PicD). Description: spectrophotometric […],5DHP disappearance at […] nm. The following applies: 1 mM Fe2+; 50 mM PBS pH 7.0; 25 °C. The assay is classed as biochemical, Alcaligenes faecalis.

A word on the Km: it is the substrate concentration at which the rate is half of its maximum. For `Oc1ccc(O)nc1` [2,5DHP, 2,5-dihydroxypyridine], the Km worked out at 65.7 ± 6.27 µM.
